This assay concerns M. tuberculosis MDR strains M70, M28, M94, M14, TN5904 and H37Rv. Put plainly: microbe, parasite or virus in culture. The assay is classed as cell-based, Mycobacterium tuberculosis. As to conditions: for MIC: Mycobacterium tuberculosis, H37RV; for MIC, μg/mL in M. tuberculosis strain: M14: MDR strain M14, MABA assay; for MIC, μg/mL in M. tuberculosis strain: M28: MDR strain M28, MABA assay; for MIC, μg/mL in M. tuberculosis strain: M70: MDR strain M70, MABA assay; for MIC, μg/mL in M. tuberculosis strain: M94: MDR strain M94, MABA assay; for MIC, μg/mL in M. tuberculosis strain: TN5904: MDR strain TN5904, MABA assay; for MIC, μg/mL in M. tuberculosis strain: H37Rv: drug-susceptible strain H37Rv, MABA assay. For orientation: The colour change of resazurin is a common sign of viable cells or microbes.

Setting [1] is: read-out: MIC, μg/mL in M. tuberculosis strain: M28.
Setting [2] is: read-out: MIC, μg/mL in M. tuberculosis strain: M94.

≈ marks a conversion by molar mass, not a printed value. Like-named read-outs stand apart in the source and are kept apart here.

In the case of `Cn1nnc(-c2ccc(-c3ccc(N4C[C@H](CN)OC4=O)cc3F)cn2)n1` [AKG-3], the MIC reads like this: under setting [1], 0.06 µg/mL (≈ 0.162 µM); under setting [2], 0.06 µg/mL (≈ 0.162 µM).
For the molecule `Cl.Cl.NCCn1nnc(-c2ccc(-c3ccc(N4C[C@H](CN)OC4=O)cc3F)cn2)n1` [AKG-29], the MIC came out at 0.125 µg/mL under setting [1] and 0.125 µg/mL under setting [2].
Consider `CC(=O)NC[C@H]1CN(c2ccc(-c3ccc(-c4nnn(CCN(C)C)n4)nc3)c(F)c2)C(=O)O1` [AKG-38], for which the MIC (read-out: MIC, μg/mL in M. tuberculosis strain: TN5904) was 0.03 µg/mL (≈ 0.064 µM).
For the molecule `NNC(=O)c1ccncc1` [INH], the “MIC, μg/mL in M. tuberculosis strain: M14” value (shortened to “MIC, μg/mL … M14”) was over 2 µg/mL; the “MIC, μg/mL in M. tuberculosis strain: M28” value (“MIC, μg/mL … M28” below) was over 2 µg/mL; the “MIC, μg/mL in M. tuberculosis strain: M70” value (from here on “MIC, μg/mL … M70”) is over 2 µg/mL; the “MIC, μg/mL in M. tuberculosis strain: M94” value is over 2 µg/mL. The “MIC, μg/mL in M. tuberculosis strain: TN5904” value (shortened to “MIC, μg/mL … TN5904”) came out at 2 µg/mL (≈ 14.6 µM) and the “MIC, μg/mL in M. tuberculosis strain: H37Rv” value (shortened to “MIC, μg/mL … H37Rv”) was 0.06 µg/mL (≈ 0.438 µM).
As to `COc1c(N2C[C@@H]3CCCN[C@@H]3C2)c(F)cc2c(=O)c(C(=O)O)cn(C3CC3)c12` [MOX], the MIC under setting [2] turned out to be 0.125 µg/mL (≈ 0.311 µM).
In the case of `CO[C@H]1/C=C/O[C@@]2(C)Oc3c(C)c(O)c4c(O)c(c(/C=N/N5CCN(C)CC5)c(O)c4c3C2=O)NC(=O)/C(C)=C\C=C\[C@H](C)[C@H](O)[C@@H](C)[C@@H](O)[C@@H](C)[C@H](OC(C)=O)[C@@H]1C` [RIF], the “MIC, μg/mL … M14” value stood at 0.06 µg/mL (≈ 0.0729 µM); the “MIC, μg/mL … M28” value is over 8 µg/mL; the “MIC, μg/mL … M70” value was over 8 µg/mL; the “MIC, μg/mL … TN5904” value is over 8 µg/mL. Besides, the “MIC, μg/mL … H37Rv” value is 0.06 µg/mL (≈ 0.0729 µM).
`CN[C@@H]1[C@H](O[C@H]2[C@H](O[C@H]3[C@H](O)[C@@H](O)[C@H](N=C(N)N)[C@@H](O)[C@@H]3N=C(N)N)O[C@@H](C)[C@]2(O)C=O)O[C@@H](CO)[C@H](O)[C@H]1O` [STR]: the “MIC, μg/mL … M14” value was over 8 µg/mL; the “MIC, μg/mL … M28” value worked out at 0.125 µg/mL (≈ 0.215 µM); the “MIC, μg/mL … M70” value came to 2 µg/mL (≈ 3.44 µM); the “MIC, μg/mL in M. tuberculosis strain: M94” value is over 8 µg/mL. The “MIC, μg/mL … TN5904” value was determined as 1 µg/mL (≈ 1.72 µM) and the “MIC, μg/mL … H37Rv” value was 0.5 µg/mL (≈ 0.86 µM).

Values taken from patent publication US20260083674A1, “OXAZOLIDINONE LIPOSOME COMPOSITIONS” (priority 2021, published 2026).
